Measurements from patent publication US9975860B2, “Anti-angiogenic compounds” (UNIVERSITY COLLEGE DUBLIN—NATIONAL UNIVERSITY OF IRELAND, …, priority 2014, dated 2018).
Entries after “also recorded” stand apart in the source; their conditions may differ.

Columns and labels:
[1] = system: intersegmental vasculature in zebrafish; test: Quantification of intersegmental vessel number in zebrafish; assay type: in vivo; conditions: 10 μM; zebrafish embryos treated 6 hpf to 48 hpf
Procedure: At 6 hours post fertilisation, 5 embryos per well were placed in 400 μL of embryo medium/0.1% DMSO and incubated with 10 μM compound at 28° C. on a 14 h light/10 h dark cycle. At 48 hpf larvae were manually dechorionated, euthanised, and fixed in 4% PFA at 4° C. overnight before analysis. The larvae were then washed with PBS and transferred to depression slides for observation under epi-fluorescence in an Olympus SZX16 fluorescent microscope. The number of intersegmental vessels was counted and the average number was graphed for each drug.
(§1) All experimental protocols were carried out as per example 1 and 2. Briefly, zebrafish larvae were treated with 10 μM of AT-051/41206012 (chemical name 2-[2-(2-methoxyphenyl)ethenyl]pyrazine) purchased from Specs (The Netherlands). At 6 or 48 hours post fertilisation (hpf), 5 embryos per well were placed in 400 μl of Embryo Medium/0.1% DMSO and incubated with 10 μM AT-051/41206012 at 28° C. on a 14 h light/10 h dark cycle. Larvae were treated from 6-48 hpf (intersegmental vessel study) or from 48 to 120 hpf (primary hyaloid vessel study). At the end of the study, larvae were euthanized and fixed in 4% PFA at 4° C. overnight before analysis.
(§2) The number of intersegmental vessels was counted and the average number was graphed for each drug. Right lenses were dissected from the larvae and transferred to depression slides for observation and the number of primary hyaloid vessels radiating from the back of the lens (3-4 main branches at 5 dpf in controls and previously described), was counted and the average number was graphed for each drug.

[2] = system: primary hyaloid vessels in zebrafish; test: Quantification of primary hyaloid vasculature branch number in Tg(fli1:EGFP) zebrafish; assay type: in vivo
Procedure: All experiments were carried out under ethical approval granted by the UCD animal research ethics committee. Tg(fli1:EGFP) zebrafish were maintained according to standard procedures on a 14 hr light/10 hr dark cycle at 28° C. Embryos were obtained by natural spawning and developmental stages established by time and morphological criteria. At 48 hours post fertilisation (hpf), 5 embryos per well were placed in 400 μl of Embryo Medium/0.1% DMSO and incubated with compound (typically, 10 μM) at 28° C. on a 14 h light/10 h dark cycle. At 5 days post fertilisation (dpf), larvae were euthanised, and fixed in 4% PFA at 4° C. overnight before analysis.
Prior to analysis of the intraocular vasculature, the control and treated larvae were observed under an Olympus SZX16 stereo zoom microscope and screened for general malformations. Overall patterning of the vasculature (fin, gut and intersegmental vessels) was examined for abnormalities. Right lenses were dissected from the larvae and transferred to depression slides for observation under epi-fluorescence in the Olympus SZX16. Patterning of the hyaloid vessels on the treated larval lenses was compared to 0.1% DMSO controls and the archetypal pattern previously described (Alvarez et al., 2007; Alvarez et al., 2009). The number of primary vessels radiating from the back of the lens (3-4 main branches at 5 dpf in controls and previously described), was counted and the average number was graphed for each drug.
as §1, §2

[3] = system: human retinal (ARPE-19) cells; test: MTT cell viability assay in ARPE-19; assay type: cell-based; conditions: 5, 10, 25, 50, 75 or 90 μM, 96 hours
Procedure: A 3-(4,5-dimethylthiozol-2-yl)-2,5-diphenyltetrazolium bromide (MTT) dye reduction assay was carried out to determine the cytotoxicity of each compound on either human microvascular endothelial cells (HMECs) or human retinal pigmented epithelium cells (ARPE-19). Cells were maintained in a 95% air and 5% CO2 atmosphere at 37° C. in Dulbecco modified Eagle medium (DMEM, Sigma Aldrich) with 10% fetal bovine serum, 2 mM Gibco® L-glutamine and 100 units/ml penicillin, 1 mg/ml streptomycin (Invitrogen) supplementation. On day 1, cells were trypsinized (Trypsin-EDTA 1×) and seeded 1.4×10^4 cells per well of a 96 well plate and incubated overnight. On day 2, cells were serum staved in DMEM with L-glutamine and penicillin-streptomycin supplementation for 24 h. On day 3, cells were drug treated for 24 h (HMECs) or 96 h (ARPE-19 cells) with 0.1% DMSO or 10 μM to 90 μM of each compound 4, 8, 15, 18 or 20, with 4 replicate wells of each compound. After 24-96 h, cells were incubated with […] 5 mg/ml MTT labelling Reagent (Roche) for 2 h. Subsequently, when purple formazan crystals formed cells were incubated with 1× solubilisation solution (Roche) for 4 h and absorbance read at 570 nm using a microplate reader.

mouse aortic ring = test: Ex vivo mouse aortic ring assay (sprout formation); conditions: 10 μM; C57/BL6 mouse aortic rings in matrigel; vs 0.1% DMSO; hydrochloride
Procedure: Aortae from sex matched C57/BL6 littermates were cleansed of adipose tissue, cut into 2 mm rings and immersed in matrigel. Aortic rings (6 per experiment) were treated with 0.1% DMSO (vehicle control/VC) or with 10 μM of Compound 4, Compound 12, Compound 15 or Compound 20. Sprouts from the perimeter of the aortic ring were counted and quantified as percentage of vehicle control (VC).

[4] = 10 μM, zebrafish larvae treated 48 hpf to 5 dpf, vs 0.1% DMSO control
[5] = concentrations below 10 μM (range 1, 2.5, 5, 7.5 and 10 μM tested), zebrafish larvae 48 hpf to 5 dpf

Row | Compound | inhibition of developmental angiogenesis of intersegmental vessels (number of intersegmental vessels) [1] | inhibition of developmental angiogenesis of the hyaloid vasculature (number of primary hyaloid vessels) [2, 4] | inhibition of developmental angiogenesis of the hyaloid vasculature (number of primary hyaloid vessels) [2, 5] | cell viability (MTT assay) [3] | angiogenesis (sprout formation) in aortic rings (mouse aortic ring)
1 | Oc1ccccc1/C=C/c1cnccn1 [Compound 3, (E)-2-[2-(Pyrazin-2-yl)vinyl]phenol] | inhibit developmental angiogenesis of zebrafish intersegmental vessels in a statistically significant manner | inhibit developmental angiogenesis of the zebrafish hyaloid vasculature in a statistically significant manner | inhibit developmental angiogenesis of the zebrafish hyaloid vasculature in a statistically significant manner |  | 
2 | Cl.Oc1ccccc1C#Cc1cnccn1 [Compound 20, 2-[2-(pyrazin-2-yl)ethynyl]phenol hydrochloride] | inhibit developmental angiogenesis of zebrafish intersegmental vessels in a statistically significant manner | inhibit developmental angiogenesis of the zebrafish hyaloid vasculature in a statistically significant manner | inhibit developmental angiogenesis of the zebrafish hyaloid vasculature in a statistically significant manner | does not affect cell viability | block angiogenesis (sprout formation); also recorded: inhibit the formation of sprouts in a statistically significant manner
3 | Oc1ccccc1/C=C/c1ccccn1 [Compound 1, (E)-2-[2-(Pyridin-2-yl)vinyl]phenol] |  | inhibit developmental angiogenesis of the zebrafish hyaloid vasculature in a statistically significant manner |  |  | 
4 | Cl.Oc1ccccc1/C=C/c1ncccn1 [Compound 15, (E)-2-[2-(Pyrimidin-2-yl)vinyl]phenol hydrochloride] |  | inhibit developmental angiogenesis of the zebrafish hyaloid vasculature in a statistically significant manner |  | does not affect cell viability | block angiogenesis (sprout formation); also recorded: inhibit the formation of sprouts in a statistically significant manner
5 | Cc1ccc(O)c(/C=C/c2cnccn2)c1 [Compound 13, (E)-4-Methyl-[2-(2-(pyrazin-2-yl)vinyl)]phenol] |  | inhibit developmental angiogenesis of the zebrafish hyaloid vasculature in a statistically significant manner |  |  | 
6 | Cl.Oc1ccccc1/C=C/c1ncc[nH]1 [Compound 23, (E)-2-(2-(IH-Imidazol-2-yl)vinyl)phenol hydrochloride] |  | inhibit developmental angiogenesis of the zebrafish hyaloid vasculature in a statistically significant manner |  |  | 
7 | Cl.Oc1ccccc1/C=C/c1ccccn1 [Compound 2, (E)-2-[2-(Pyridin-2-yl)vinyl]phenol hydrochloride] | inhibit developmental angiogenesis of zebrafish intersegmental vessels in a statistically significant manner | inhibit developmental angiogenesis of the zebrafish hyaloid vasculature in a statistically significant manner | inhibit developmental angiogenesis of the zebrafish hyaloid vasculature in a statistically significant manner |  | 
8 | COc1ccccc1/C=C/c1cnccn1 [AT-051/41206012, 2-[2-(2-methoxyphenyl)ethenyl]pyrazine] | does not inhibit developmental angiogenesis of the intersegmental vessels; also recorded: does not affect the development of intersegmental vessels | significantly inhibits developmental angiogenesis of zebrafish hyaloid vessels; also recorded: does inhibit developmental angiogenesis of the zebrafish hyaloid vasculature in a statistically significant manner |  |  | 
9 | Cc1ccc(O)c(/C=C/c2cnccn2)c1.Cl [Compound 14, (E)-4-Methyl-[2-(2-(Pyrazin-2-yl)vinyl)]phenol hydrochloride] |  | inhibit developmental angiogenesis of the zebrafish hyaloid vasculature in a statistically significant manner |  |  | 
10 | COc1ccccc1C#Cc1cnccn1 [Compound 19, 2-[2-(2-Methoxyphenyl)ethynyl]pyrazine] | inhibit developmental angiogenesis of zebrafish intersegmental vessels in a statistically significant manner |  | inhibit developmental angiogenesis of the zebrafish hyaloid vasculature in a statistically significant manner |  | 
11 | Cc1cccc(/C=C/c2ccccc2O)n1.Cl [Compound 8, (E)-2-[2-(6-Methylpyridin-2-yl)vinyl]phenol hydrochloride] |  | inhibit developmental angiogenesis of the zebrafish hyaloid vasculature in a statistically significant manner | inhibit developmental angiogenesis of the zebrafish hyaloid vasculature in a statistically significant manner | does not affect cell viability | 
12 | C/C(=C\c1ccccc1O)c1cnccn1 [Compound 11, (E)-2-[2-(Pyrazin-2-yl)prop-1-enyl]phenol] |  | inhibit developmental angiogenesis of the zebrafish hyaloid vasculature in a statistically significant manner |  |  | 
